Assays:
rats = assay: Histopathological examination of nostrils, nasal cavity and pharynx (local tolerability); type: in vivo; details: dose as high as 12.5 mg/kg in rats, intranasal
From the text: Subsequent to the last blood sampling animals were sacrificed by induction of a deep anesthesia with isoflurane followed by rapid exsanguinations. Then both nostrils and nasal cavity including pharynx were collected from all animals and preserved in neutral buffered formaldehyde (4%) for histopathological examination. Afterwards, tissues for the histopathological investigation were trimmed and embedded in paraplast®. The slides were HE (hematoxylin and eosin)-stained and histopathologically examined.

SARS-Covid 2 virus = details: cited Monash lab experiments; cited from earlier work
[1] = Particle size distribution (PSD) by laser diffraction, Malvern Mastersizer 2000/3000; type: physicochemical
Description: The mean particle size distribution is preferably obtained by laser diffraction. In a laser diffraction measurement, a laser beam passes through a dispersed particulate sample and the angular variation in intensity of the scattered light is measured. Large particles scatter light at small angles relative to the laser beam and small particles scatter light at large angles. The angular scattering intensity data is then analyzed to calculate the size of the particles that created the scattering pattern using the Mie theory of light scattering. The particle size is reported as a volume equivalent sphere diameter. The folded optical design in the Mastersizer 3000 (from Malvern Panalytical), which was in particular used for the measurements, provides a particle size range from 10 nm up to 3.5 mm using a single optical measurement path. The Mastersizer 3000 uses a sequential combination of measurements with red and blue light sources to measure across the entire particle size range.
The pharmaceutically active agent is grinded in a mortar/pestle system to the appropriate particles size prior to its use. Afterwards the Particles Size Distribution (PSD) is measured using a Malvern Master Sizer 3000. The samples after grinding are stored in tightly closed brown glass bottles.
The pharmaceutically active agent is micronised to the desired particles size using a jet mill (e.g. from SpiraNo 100 from MCKO, Germany) and screw dosing system (e.g. ZD 9 from Three-Tec Ltd., Seon, Switzerland). The diameter of the injection nozzle is selected at about 6 mm, the milling gas pressure about 2 bar, the milling temperature is about 18° C. The duration of the process is about 5-10 minutes depending on the particle size of the non-micronised active agent. Afterwards the PSD is measured with a Malvern Master Sizer 3000. The samples after micronisation are stored in tightly closed brown glass bottles.
Afterwards the PSD is measured with a Malvern Master Sizer 3000. In addition, the Zetapotential, an index for the stability of the multiparticulate suspensions is measured using a Zeta Sizer (e.g. Nano ZS) from Malvern Instruments (Dynamic Laser diffraction).
In some embodiments, the PSD of the pharmaceutically active agent, provided for the preparation of its multiparticulate suspension according to procedure 1 and procedure 2 (grinded/micronised), was measured using a Malvern Mastersizer 2000 or 3000 (in water as dispersion medium, stirrer speed 1500 rpm, Mie presentation) to give the following results:
In some embodiments, the PSD of the pharmaceutically active agent in multiparticulate suspension prepared according to procedure 3 (wet ball milling with Delta Vita 1), procedure 4 (wet ball milling Getzmann/Frewitt), procedure 5 (bulk microsuspension) and procedure 6 (final product) was measured using a Malvern Mastersizer 2000 or 3000 (in water as dispersion medium, stirrer speed 1500 rpm, Mie presentation).

Substance: ivermectin
- tolerability of the active ingredient (rats): well tolerated
- activity against SARS-Covid 2 virus (SARS-Covid 2 virus): active

Substance: ivermectin [05KB21.HM00155]
- D10 ([1]; API batch after grinding): 2.02 μm
- D50 ([1]; API batch after grinding): 6.89 μm
- D90 ([1]; API batch after grinding): 32.0 μm

Substance: ivermectin [05KB21.HM00170-]
- D10 ([1]; API batch after micronisation): 0.97 μm
- D50 ([1]; API batch after micronisation): 2.22 μm
- D90 ([1]; API batch after micronisation): 4.35 μm

From patent publication US20250064841A1, “Aqueous Composition Comprising Avermectins” (HWI Pharma Services GmbH, priority 2022, published 2025)
